Results published in patent publication US10105380B2, “Glycoclusters and their pharmaceutical use as antibacterials” (priority 2013, dated 2018).
pIC50, pKd: −log10 of the molar value. Values after ≈ are worked out from the molar mass of the structure shown. Like-named read-outs stand apart in the source and are kept apart here.

Tests used:
PA-IL [1] = target: T1, PA-IL (Pseudomonas aeruginosa, UniProt Q05097); assay type: binding; details: for Potency vs EG3-O-Gal: ratio of IC50Lac to mono EG3-O-galactose (entry 1); for Potency vs AcNPhe-O-Gal: ratio of IC50Lac to mono-aromatic galactose 31 (entry 2); for β: Table 6, relative potency vs monovalent ligand 31
Description: IC50 Determination with “on Chip” Biological Recognition
Lectin PA-IL (0.12 μM final concentration), BSA (2% final concentration) and CaCl2 (1 μg/mL final concentration) was diluted in PBS1× (pH=7.4). In each micro tube was added the inhibitor lactose at the desired final concentration (0; 1.10^−5; 1.10^−4; 5.10^−4; 1.10^−3; 5.10^−3; 1.10^−2; 5.10^−2; 0.1; 1; 5; 10; 50; 10^2; 5.10^2; 10^3; 5.10^3; 10^4; 10^5; 3.10^5).
2 μL of each solution were deposited in the corresponding microwells and the slide was incubated at 37° C. in a water vapor saturated chamber for 3 h. The washing steps are: PBS-Tween0.2% 5 min at 4° C., then briefly in deionized water and dried by centrifugation.
Slide was scanned at 532 nm then at 635 nm with the Microarray scanner, GenePix 4100A software package (Axon Instruments; λex 532/635 nm and λem 575/670 nm). The fluorescence signal of each conjugate was determined as the average of the mean fluorescence signal of sixty-four spots.
IC50 values were determined using “BioDataFit 1.02 program”. The model chosen was “Sigmoidal”: Y=a+(b−a)/[1+10^(x−c)]
with a=FImin, b=FImax, x=[…] and c=log(IC50). FImin/max is the minimum/maximum Alexa-647 fluorescence signal observed for a galactomimetic.
So the IC50 value was called IC50Lac.

PA-IL [2] = target: T1, PA-IL; test: Kd determination on DDI microarray (Langmuir isotherm, Scatchard plot); assay type: binding
Description: The methodologies for Kd and IC50 value determination have been previously reported (Gerland, B. et al., (2012) Bioconjugate Chem. 23, 1534-1547; Zhang, J. et al., (2009) Chem. Comm., 6795-6797; Zhang, J. et al., (2009) Biosens. Bioelectron. 24, 2515-2521).
CaCl2 (1 μg/mL final concentration) was added. PA-IL at the desired final concentration was then added. 2 μL of each solution (corresponding to the desired PA-IL concentration) were poured in the corresponding microwells. The slide was incubated (3 h, 37° C.) in a water vapor saturated chamber and finally washed in PBS-Tween 20 (0.02%, 5 min, 4° C.) and dried. A Microarray scanner, GenePix 4100A software package (Axon Instruments; λex 532/635 nm and λem 575/670 nm) was used for fluorescent imaging of both fluorophore (Cy3 and Alexa 647). The average of the mean fluorescence signal was calculated from eight spots. The resulting Langmuir Isotherms were linearised using Scatchard plot to give the Kd values at the ordonnate intercept.

PA-IL [3] = target: T1, PA-IL; assay type: binding; details: potency in respect with GalOMe (ITC Kd)
Description: Recombinant lyophilized PA-IL was dissolved in buffer (0.1 M TRIS-HCl, 6 μM CaCl2, pH 7.5) and degassed. […] ITC was performed using a VP-ITC MicroCalorimeter from MicroCal Incorporated. PA-IL was placed into the1.4478 mL sample cell, at 25° C. Titration was performed with 10 μL injections of carbohydrate ligands every 300 s. Data were fitted using the “one-site model” using MicroCal Origin 7 software according to standard procedures. Fitted data yielded the stoichiometry (n), the association constant (Ka), and the enthalpy of binding (ΔH). Other thermodynamic parameters (i.e., changes in free energy ΔG and entropy ΔS) were calculated from the equation ΔG=ΔH−TΔS=−RTlnKa in which T is the absolute temperature and R=8.314 J·mol^−1·K^−1. Two or three independent titrations were performed for each ligand tested.

PA-IL [4] = target: T1, PA-IL; test: Hemagglutination inhibition assay (HIA), rabbit erythrocytes; assay type: cell-based
Description: The binding of PA-IL to galactoclusters was probed as the ability of the clusters to inhibit the binding of PA-IL to rabbit erythrocytes (Hemagglutination inhibition assay, HIA) or to surface bound galactosyl modified polyacrylamide either by Surface Plasmon Resonance (SPR), Enzyme Linked Assay (ELLA) Inhibition was measured with competitive assays. In HIA experiments, the minimal inhibitory concentration (MIC) is the minimal concentration of galactocluster that inhibit the hemagglutination of rabbit erythrocytes in presence of the lectin. The lower the MIC the highest is the binding of the galactocluster to the lectin. SPR and ELLA were used to determine the IC50 value. […] The lower the IC50 value as determined by SPR (^SPRIC50) and ELLA (^ELLAIC50), the higher is the binding of PA-IL to the galactocluster.
Hemagglutination inhibition assays (HIA) were performed in U-shaped 96-well microtitre plates. Rabbit erythrocytes were purchased from Biomérieux and used without further washing. Erythrocytes were diluted to a 8% solution in NaCl (100 mM). PA-IL solutions of 3 μM were prepared in TRIS-HCl 20 mM (TRIS=tris(hydroxymethyl)aminomethane), NaCl 100 mM, and CaCl2 100 mM. The hemagglutination unit (HU) was first obtained by addition of the 4% erythrocyte solution (50 μL) to aliquots (50 μL) of sequential (twice) lectin dilutions. The mixture was incubated at 25° C. for 30 min. The HU was measured as the minimum lectin concentration required to observe hemagglutination. For the following lectin-inhibition assays, lectin concentrations of 4 HU were used. […] Subsequent inhibition assays were then carried out by the addition of lectin solution (25 μL, at the required concentration) to sequential dilutions (50 μL) of glycoclusters, monomer molecules, and controls. These solutions were incubated at 37° C. for 30 min, then 8% erythrocyte solution (25 μL) was added, followed by an additional incubation at 37° C. for 1 h. The minimum inhibitory concentration for each molecule was determined for each duplicate.

[5] = lactose concentration required to displace 50% of PA-IL from the glycocluster, higher = better binding, read-out: IC50Lac
[6] = DNA-tagged galactoclusters G1-G24 on glycoarray, read-out: IC50
[7] = DNA-tagged galactoclusters G1-G24 on glycoarray

T1 sequence (Q05097 2-122): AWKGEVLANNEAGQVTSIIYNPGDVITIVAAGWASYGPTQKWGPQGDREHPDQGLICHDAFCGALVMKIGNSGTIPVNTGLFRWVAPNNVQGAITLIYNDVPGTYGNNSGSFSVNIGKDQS

## Man[POTHME(MTzAcNPhe-O-Gal)2]4 [compound 35]
PA-IL [1]; [5]
  pIC50: 2.74
PA-IL [1]
  Potency vs EG3-O-Gal: 361
  Potency vs AcNPhe-O-Gal: 113

## Man(EG3MTzAcNPhe-CH2-Gal)4 [G7]
PA-IL [1]; [6]
  pIC50: 2.04
PA-IL [2]; [7]
  pKd: 7.07

## Man(EG3MTzAcNPh-SGal)4 [G11]
PA-IL [1]; [6]
  pIC50: 1.19
PA-IL [2]; [7]
  pKd: 7.31

## Man(EG2MTzproNCONapht-OGal)4 [G21]
PA-IL [2]; [7]
  pKd: 7.85

## Man(EG3MTzAcNPhe-CH2-SGal)4 [G15]
PA-IL [1]; [6]
  pIC50: 1.88
PA-IL [2]; [7]
  pKd: 7.12

## Man(POProTzEG3-O-Gal)4 [C3]
PA-IL [1]
  β: 1.8
  Potency vs EG3-O-Gal: 5.8
  Potency vs AcNPhe-O-Gal: 1.8
PA-IL [1]; [5]
  pIC50: 4.54

## Man(PSEG2MTzAcNPh-SGal)4 [G10]
PA-IL [1]; [6]
  pIC50: 1.42
PA-IL [2]; [7]
  pKd: 7.26

## Man(POEG2MTzAcNPhe-O-Gal)4 [compound 32]
PA-IL [1]; Table 6, DNA-galactomimetics, lactose as inhibitor, read-out: microarray IC50Lac
  pIC50: 2.37
PA-IL [1]
  β: 264
  Potency vs EG3-O-Gal: 844
  Potency vs AcNPhe-O-Gal: 264
PA-IL [1]; [5]
  pIC50: 2.37
PA-IL [2]; text b577, microarray, Langmuir isotherm
  pKd: 7.08

## Man(PSEG3MTzproNCOBisphe-OGal)4 [G20]
PA-IL [1]; [6]
  pIC50: 1.09
PA-IL [2]; [7]
  pKd: 7.37

## CO[C@@H]1O[C@H](CO)[C@H](O)[C@H](O)[C@H]1O [Gal-OMe, 1-O-Methyl-β-D-galactoside]
PA-IL [3]
  βMe: 1
PA-IL [4]; minimal inhibitory concentration of hemagglutination, PA-IL 3 μM
  MIC: 16 mM (≈ 3110 µg/mL)
PA-IL [4]; ratio of MIC of Gal-OArNO2 over MIC of the molecule
  βAr: 0.13
PA-IL [4]; ratio of MIC of Gal-OMe over MIC of the molecule
  βMe: 1.0

## Man(PSEG3MTzAcNPh-Gal)4 [G4]
PA-IL [1]; [6]
  pIC50: 1.75
PA-IL [2]; [7]
  pKd: 7.12

## Man(EG2MTzproNCOBisphe-OGal)4 [G17]
PA-IL [2]; [7]
  pKd: 7.70

## Man(PSEG3MTzAcNPhe-CH2-Gal)4 [G8]
PA-IL [1]; [6]
  pIC50: 2.08
PA-IL [2]; [7]
  pKd: 6.90

## Man(PSEG2MTzAcNPhe-CH2-SGal)4 [G14]
PA-IL [1]; [6]
  pIC50: 1.73
PA-IL [2]; [7]
  pKd: 7.15
